Data: US11091479B2, “Triazolopyridin-3-ones or their salts and pharmaceutical compositions comprising the same” (YUHAN CORPORATION, priority 2018, dated 2021)
Structures can show the parent of a compound that is named as a salt.

Experiments:
Assay type in all cases: biochemical
[1] = biological target: T1, recombinant human VAP-1 (Homo sapiens, UniProt Q16853); assay: Activity on recombinant human VAP-1, HRP-coupled Amplex Red hydrogen peroxide assay, benzylamine substrate; conditions: 30 min incubation at 37° C., 1 mM benzylamine, read-out: Inhibitory Activity (IC50, nM) human VAP-1
T1 construct: purchased R&D systems
T1 sequence (Q16853 1-763): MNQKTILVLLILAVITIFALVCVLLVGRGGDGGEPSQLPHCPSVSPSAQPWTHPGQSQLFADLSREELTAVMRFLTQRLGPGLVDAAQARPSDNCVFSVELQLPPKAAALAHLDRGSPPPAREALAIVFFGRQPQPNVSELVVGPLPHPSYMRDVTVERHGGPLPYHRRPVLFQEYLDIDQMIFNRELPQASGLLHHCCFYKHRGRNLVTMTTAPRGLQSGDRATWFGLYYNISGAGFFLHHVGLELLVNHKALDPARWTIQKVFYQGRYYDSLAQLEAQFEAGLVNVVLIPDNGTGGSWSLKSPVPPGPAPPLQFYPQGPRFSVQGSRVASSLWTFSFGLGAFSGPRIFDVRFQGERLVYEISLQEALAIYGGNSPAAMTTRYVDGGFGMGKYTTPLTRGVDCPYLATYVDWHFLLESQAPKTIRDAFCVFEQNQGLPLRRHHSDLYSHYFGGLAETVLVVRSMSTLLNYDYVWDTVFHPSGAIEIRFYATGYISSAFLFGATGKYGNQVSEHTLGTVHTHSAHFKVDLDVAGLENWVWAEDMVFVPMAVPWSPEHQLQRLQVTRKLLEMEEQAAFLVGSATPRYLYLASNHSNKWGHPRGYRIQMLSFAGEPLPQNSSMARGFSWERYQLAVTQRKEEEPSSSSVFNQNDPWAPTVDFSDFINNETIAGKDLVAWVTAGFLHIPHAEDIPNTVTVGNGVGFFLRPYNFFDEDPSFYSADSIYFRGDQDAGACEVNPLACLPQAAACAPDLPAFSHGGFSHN
Procedure, shortened: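 Recombinant human VAP-1 in 50 mM sodium phosphate pH 7.4 preincubated with compound for 30 min at 37 °C, then 1 mM benzylamine, 200 uM Amplex Red and 1 U/mL HRP added. Resorufin fluorescence (ex 544/em 590 nm) followed over 1-2 h; % signal-rate decrease vs DMSO control, 8-point 4-parameter fit for IC50.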

[2] = biological target: T2, recombinant human DAO (diamine oxidase) (Homo sapiens, UniProt P19801); assay: Activity on recombinant human DAO, method similar to VAP-1 assay, 1 mM putrescine substrate; conditions: read-out: Inhibitory Activity (IC50, nM) DAO
T2 construct: purchased R&D systems
T2 sequence (P19801 20-751): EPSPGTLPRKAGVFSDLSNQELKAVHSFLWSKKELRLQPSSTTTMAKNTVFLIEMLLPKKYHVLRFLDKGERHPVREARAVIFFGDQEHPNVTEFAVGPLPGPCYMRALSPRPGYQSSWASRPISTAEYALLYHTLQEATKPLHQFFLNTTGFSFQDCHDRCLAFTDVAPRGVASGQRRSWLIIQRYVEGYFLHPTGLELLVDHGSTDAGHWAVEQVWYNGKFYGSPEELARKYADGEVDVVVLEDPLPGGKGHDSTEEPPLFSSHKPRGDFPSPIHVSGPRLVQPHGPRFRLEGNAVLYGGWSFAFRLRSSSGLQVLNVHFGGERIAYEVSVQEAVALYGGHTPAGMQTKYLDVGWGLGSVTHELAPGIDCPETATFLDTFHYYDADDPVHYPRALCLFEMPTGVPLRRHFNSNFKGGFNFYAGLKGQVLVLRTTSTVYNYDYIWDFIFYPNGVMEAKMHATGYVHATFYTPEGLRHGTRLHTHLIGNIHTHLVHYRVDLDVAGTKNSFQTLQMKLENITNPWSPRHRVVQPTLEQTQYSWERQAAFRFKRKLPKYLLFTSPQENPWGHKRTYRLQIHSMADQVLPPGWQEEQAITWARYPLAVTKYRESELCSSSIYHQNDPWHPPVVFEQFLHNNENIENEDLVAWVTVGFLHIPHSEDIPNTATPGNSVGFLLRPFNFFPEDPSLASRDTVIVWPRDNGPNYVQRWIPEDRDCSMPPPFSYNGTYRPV
Procedure, shortened: (§1)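 Amplex Red/HRP-coupled H2O2 fluorescence assay run as for VAP-1: enzyme in 50 mM sodium phosphate pH 7.4 preincubated with compound 30 min at 37 °C, then substrate (putrescine for DAO, benzylamine for MAO-B, tyramine for MAO-A) added with 200 uM Amplex Red, 1 U/mL HRP. Signal rate over 1-2 h; IC50 from 4-parameter logistic fit.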

[3] = biological target: T3, recombinant human MAO-B (monoamine oxidase-B) (Homo sapiens, UniProt P27338); assay: Activity on recombinant human MAO-B, method similar to VAP-1 assay, 1 mM benzylamine substrate; conditions: read-out: Inhibitory Activity (IC50, nM) MAO-B
T3 construct: purchased Sigma-Aldrich
T3 sequence (P27338 1-520): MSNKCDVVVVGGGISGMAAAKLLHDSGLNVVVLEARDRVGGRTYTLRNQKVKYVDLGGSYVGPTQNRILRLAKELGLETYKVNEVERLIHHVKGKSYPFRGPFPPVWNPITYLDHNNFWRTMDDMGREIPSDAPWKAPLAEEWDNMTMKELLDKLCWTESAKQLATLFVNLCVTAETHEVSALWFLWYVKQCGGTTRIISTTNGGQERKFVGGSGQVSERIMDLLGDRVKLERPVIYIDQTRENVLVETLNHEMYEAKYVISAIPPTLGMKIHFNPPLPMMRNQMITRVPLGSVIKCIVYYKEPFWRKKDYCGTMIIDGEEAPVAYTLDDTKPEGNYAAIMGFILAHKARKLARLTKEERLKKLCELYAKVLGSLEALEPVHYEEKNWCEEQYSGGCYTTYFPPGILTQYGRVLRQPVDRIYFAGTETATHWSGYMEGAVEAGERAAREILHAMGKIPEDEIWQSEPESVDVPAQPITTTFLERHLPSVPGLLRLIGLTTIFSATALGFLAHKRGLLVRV
Procedure, shortened: as §1

[4] = biological target: T4, recombinant human MAO-A (monoamine oxidase-A) (Homo sapiens, UniProt P21397); assay: Activity on recombinant human MAO-A, method similar to VAP-1 assay, 0.5 mM tyramine substrate; conditions: read-out: Inhibitory Activity (IC50, nM) MAO-A
T4 construct: purchased Sigma-Aldrich
T4 sequence (P21397 1-527): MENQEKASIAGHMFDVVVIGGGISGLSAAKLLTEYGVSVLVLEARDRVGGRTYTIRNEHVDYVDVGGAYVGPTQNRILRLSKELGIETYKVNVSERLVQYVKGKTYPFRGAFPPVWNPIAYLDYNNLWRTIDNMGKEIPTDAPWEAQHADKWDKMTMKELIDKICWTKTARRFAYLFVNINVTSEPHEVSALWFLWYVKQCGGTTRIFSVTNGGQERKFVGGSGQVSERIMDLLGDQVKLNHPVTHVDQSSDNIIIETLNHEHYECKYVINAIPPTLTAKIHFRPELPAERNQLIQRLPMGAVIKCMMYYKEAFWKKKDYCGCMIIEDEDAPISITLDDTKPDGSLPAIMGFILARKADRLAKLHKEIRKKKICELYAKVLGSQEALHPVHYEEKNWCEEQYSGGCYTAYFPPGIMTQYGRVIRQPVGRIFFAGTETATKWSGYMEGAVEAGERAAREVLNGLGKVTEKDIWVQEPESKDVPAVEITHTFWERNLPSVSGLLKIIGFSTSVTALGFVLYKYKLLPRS
Procedure, shortened: as §1

| SMILES | IC50 [1] [nM] | IC50 [2] [nM] | IC50 [3] [nM] | IC50 [4] [nM] |
| --- | --- | --- | --- | --- |
| NC/C(=C\F)Cn1nc2cc(-c3c[nH]c4ncccc34)ccn2c1=O [Example 35, 2-[(2E)-2-(aminomethyl)-3-fluoroprop-2-en-1-yl]-7-(1H-pyrrolo[2,3-b]pyridin-3-yl)[1,2,4]triazolo[4,3-a]pyridin-3(2H)-one hydrochloride] | 0.2 | 0.5 | 24 | > 100000 |
| NC/C(=C\F)Cn1nc2cc(-c3ccc4c(c3)OCO4)ccn2c1=O [Example 36, 2-[(2E)-2-(aminomethyl)-3-fluoroprop-2-en-1-yl]-7-(1,3-benzodioxol-5-yl)[1,2,4]triazolo[4,3-a]pyridin-3(2H)-one hydrochloride] | 0.3 | 20 | 3.8 | 66000 |
| NC/C(=C\F)Cn1nc2cc(-c3ccc4cn[nH]c4c3)ccn2c1=O [Example 37, 2-[(2E)-2-(aminomethyl)-3-fluoroprop-2-en-1-yl]-7-(1H-indazol-6-yl)[1,2,4]triazolo[4,a]pyridin-3(2H)-one hydrochloride] | 0.1 | 0.3 | 190 | 26000 |
| NC/C(=C\F)Cn1nc2cc(-c3ccc4nonc4c3)ccn2c1=O [Example 38, 2-[(2E)-2-(aminomethyl)-3-fluoroprop-2-en-1-yl]-7-(2,1,3-benzoxadiazol-5-yl)[1,2,4]triazolo[4,3-a]pyridin-3(2H)-one hydrochloride] | 0.2 | 0.4 | < 10 | 3500 |
| NC/C(=C\F)Cn1nc2cc(-c3ccc4nn[nH]c4c3)ccn2c1=O [Example 39, 2-[(2E)-2-(aminomethyl)-3-fluoroprop-2-en-1-yl]-7-(1H-benzotriazol-6-yl)[1,2,4]triazolo[4,3-a]pyridin-3(2H)-one hydrochloride] | 0.1 | 0.2 | 1100 | 96000 |
| NC/C(=C\F)Cn1nc2cc(-c3ccnc4[nH]ccc34)ccn2c1=O [Example 40, 2-[(2E)-2-(aminomethyl)-3-fluoroprop-2-en-1-yl]-7-(1H-pyrrolo[2,3-b]pyridin-4-yl)[1,2,4]triazolo[4,3-a]pyridin-3(2H)-one hydrochloride] | 0.3 | 9.4 | 760 | > 100000 |
| NC/C(=C\F)Cn1nc2cc(-c3ccc4c(c3)NC(=O)OC4)ccn2c1=O [Example 41, 7-[2-[(2E)-2-(aminomethyl)-3-fluoroprop-2-en-1-yl]-3-oxo-2,3-dihydro[1,2,4]triazolo[4,3-a]pyridin-7-yl]-1,4-dihydro-2H-3,1-benzoxazin-2-one hydrochloride] | 0.3 | 1.3 | 730 | 6800 |
| NC/C(=C\F)Cn1nc2cc(-c3ccc4c(c3)NC(=O)CO4)ccn2c1=O [Example 42, 6-[2-[(2E)-2-(aminomethyl)-3-fluoroprop-2-en-1-yl]-3-oxo-2,3-dihydro[1,2,4]triazolo[4,3-a]pyridin-7-yl]-2H-1,4-benzoxazine-3 (4H)-one hydrochloride] | 0.3 | 1 | 1400 | 5400 |
| Cc1cc(-c2ccn3c(=O)n(C/C(=C/F)CN)nc3c2)cc2c1NC(=O)CC2 [Example 43, 6-[2-[(2E)-2-(aminomethyl)-3-fluoroprop-2-en-1-yl]-3-oxo-2,3-dihydro[1,2,4]triazolo[4,3-a]pyridin-7-yl]-8-methyl-3,4-dihydroquinolin-2(1H)-one hydrochloride] | 0.5 | 9.6 | 140 | > 100000 |
| CN1CCOc2cc(-c3ccn4c(=O)n(C/C(=C/F)CN)nc4c3)ccc21 [Example 44, 2-[(2E)-2-(aminomethyl)-3-fluoroprop-2-en-1-yl]-7-(4-methyl-3,4-dihydro-2H-1,4-benzoxazin-7-yl)[1,2,4]triazolo[4,3-a]pyridin-3(2H)-one hydrochloride] | 1 | 400 | < 10 | > 100000 |
| NCC(Cn1nc2cccc(Br)n2c1=O)=C(F)F [Example 45, 2-[2-(aminomethyl)-3,3-difluoro-allyl]-5-bromo-[1,2,4]triazolo[4,3-a]pyridin-3-one trifluoroacetate] | 24 | 11000 | > 100000 | > 100000 |
| NCC(Cn1nc2ccc(Br)cn2c1=O)=C(F)F [Example 46, 2-[2-(aminomethyl)-3,3-difluoro-allyl]-6-bromo-[1,2,4]triazolo[4,3-a]pyridin-3-one trifluoroacetate] | 36 | 26000 | > 100000 | > 100000 |
| NCC(Cn1nc2cc(Br)ccn2c1=O)=C(F)F [Example 47, 2-[2-(aminomethyl)-3,3-difluoro-allyl]-7-bromo-[1,2,4]triazolo[4,3-a]pyridin-3-one trifluoroacetate] | 7 | 42000 | > 100000 | > 100000 |
| CS(=O)(=O)c1ccc(-c2ccn3c(=O)n(CC(CN)=C(F)F)nc3c2)cc1 [Example 48, 2-[2-(aminomethyl)-3,3-difluoro-allyl]-7-(4-methylsulfonylphenyl)-[1,2,4]triazolo[4,3-a]pyridin-3-one trifluoroacetate] | 0.1 | 100 | 800 | > 100000 |
